Experimental data as given in PMC9693510, “High-Throughput Metabolic Soft-Spot Identification in Liver Microsomes by LC/UV/MS: Application of a Single Variable Incubation Time Approach” (Molecules, 2022).
Where two headings read alike, the source gives them in different places.

Experiments:
[1] = Metabolic soft-spot determination in HLM using LC/UV/Qtrap
Method: A specific incubation time for the individual test compounds was set up for 1–20 min based on their metabolic stability T1/2 values (Table 1). An LC/UV/Qtrap system with an Ultimate XB-C18 column (100 mm × 2.1 mm, 1.8 µm, Welch, China) was employed for quantitative and qualitative analyses of metabolites of the test compounds in HLM incubations. The mobile phases were the same as the metabolic stability assay, and the flow rate was 0.3 mL/min. […] The mass spectrometer was operated in positive ion mode using a successive multiple ion monitoring-triggered enhanced product ion scan (MIM-EPI) mode. […] All the ion source parameters were set as the following values: CUR: 30 psi; IS: 5500 V; TEM: 500 °C; GS1 and GS2: 50 psi; DP: 70 V. A criterion for the data-dependent EPI was set for the three most intense ions in each dynamic background subtraction (DBS) survey scan spectrum with an intensity threshold of 500 cps. The CE was set to 5 eV for the survey scan and 40 eV with CE spread (CES) of 15 eV for the dependent EPI scan. The scan speed for ER and EPI were 250 amu/s and 20,000 amu/s, respectively. LC/UV profiles of individual incubation were generated to reveal major metabolites using wavelengths on the λmax of parent compounds (Table S1). Protonated molecules of major metabolites were determined by matching major metabolite peak(s) in LC/UV profiles to similar ion peaks shown in LC/MS profiles from the MIM scanning or data processing. EIC, PIF, and NLF tools on PeakView SoftwareTM 1.2 (AB SCIEX, Foster City, CA, USA) were used to process LC/MS and LC/MS2 datasets. MS/MS spectral data of major metabolites were retrieved from corresponding LC/MS2 data based on their protonated molecules. The structural characterization of major metabolites was carried based on interpretation of their MS/MS spectra and biotransformation knowledge.

in vitro = details: human, microsomes, pH 7.4
[2] = Metabolic soft-spot determination in HLM using LC/UV/Q-TOF (Triple TOF); details: 8 min
Method: (§1) Supernatants of incubation samples were dried under nitrogen and then reconstituted in 100 μL of 5% acetonitrile in water prior to analysis using LC/UV/HRMS.
(§2) An LC/MS system consisted of an LC instrument (Shimadzu HPLC with a photodiode array detector (PDA), Shimadzu, Kyoto, Japan) and TripleTOF (AB 4600, Sciex, Framingham, MA, USA) was employed. LC separation was carried out using a Phenomenex Kinetex-C18 (2.1 × 150 mm, 2.6 μm, CA) and a mobile phase comprised of 0.1% formic acid (v/v) in water (solvent A) and 0.1% formic acid in acetonitrile (v/v) (solvent B). The total running time was 5 min, and the flow rate was 0.4 mL/min. […] The mass spectrometer was operating in the positive electrospray ionization mode in the m/z range of 100–1000. Dynamic background subtraction (DBS) was employed to record full-scan MS and MS/MS data simultaneously. Two approaches were used for finding and confirming protonated molecules of major metabolites. One approach was to directly get the information by reviewing full-scan MS spectra of peaks in unprocessed LC/MS dataset, which had very similar LC retention times and peak shapes to those of major metabolites shown in corresponding LC/UV profiles.

[3] = human, 3 µM, pH 7.4; for Major metabolites relative abundance (% of total UV peak areas of drug and its metabolites): 60 min
Method: as §1, §2

[4] = 0.5 µM, HLM 0.5 mg/mL, 60 min, LC/MS analysis of the parent drug; cited from earlier work
[5] = Determination of metabolic stability in HLM; details: human, microsomes, pH 7.4
[6] = HLM, 10 µM, 60 min, cited from earlier work

CCNCc1cc(Nc2ccnc3cc(Cl)ccc23)ccc1O [AM1]
Major metabolites relative abundance (% of total UV peak areas of drug and its metabolites) ([1]; human, 1 min, 3 µM, pH 7.4): Deethylation: AM1 (26.5%)

CCN(CC)Cc1cc(Nc2ccnc3cc(Cl)ccc23)ccc1O [Amodiaquine, amodiaquine]
half-life at 0.5 µM (in vitro): 1.3 min | Disappearance of the parent ([1]; human, 1 min, 3 µM, pH 7.4): 23% | The parent drug relative abundance (% of total UV peak areas of drug and its metabolites) ([1]; human, 1 min, 3 µM, pH 7.4): Amodiaquine (77.0%)

O=C1CC2(CCC(O)C2)CC(=O)N1CCCCN1CCN(c2ncccn2)CC1 (centres unmarked) [B3]
Major metabolites relative abundance (% of total UV peak areas of drug and its metabolites) ([2]; buspirone 3 μM): 12.1%

O=C1CC2(CCCC2)C(O)C(=O)N1CCCCN1CCN(c2ncccn2)CC1 (centres unmarked) [B10]
Major metabolites relative abundance (% of total UV peak areas of drug and its metabolites) ([2]; buspirone 3 μM): 16.5%

O=C1CC2(CCCC2)CC(=O)N1CCCCN1CCN(c2ncc(O)cn2)CC1 [B12]
Major metabolites relative abundance (% of total UV peak areas of drug and its metabolites) ([2]; buspirone 3 μM): 5.2%

O=C1CC2(CCCC2)CC(=O)N1CCCC[N+]1([O-])CCN(c2ncccn2)CC1 [B15]
Major metabolites relative abundance (% of total UV peak areas of drug and its metabolites) ([2]; buspirone 3 μM): 7.1%

O=C1CC2(CCCC2)CC(=O)N1CCCCN1CCN(c2ncccn2)CC1 [Buspirone, buspirone, reference compound]
The parent drug relative abundance (% of total UV peak areas of drug and its metabolites) ([3]; 8 min): Buspirone (59.1%) | T1/2 in HLM [4]: Buspirone ^d (7.6 min)

COc1ccc2c(c1)[C@]13CCCC[C@@H]1[C@H](C2)N(C)CC3 [Dextromethorphan, dextromethorphan]
half-life at 0.5 µM [5]: 24 min | The parent drug relative abundance (% of total UV peak areas of drug and its metabolites) ([1]; dextromethorphan 3 μM, 30 min, HLM): Dextromethorphan (75.5%) | The parent drug relative abundance (% of total UV peak areas of drug and its metabolites) ([1]; dextromethorphan 3 μM, 30 min, HLM, listed as dextromethorphan): 75.5%

CN1CCN2c3ncc(O)cc3Cc3ccccc3C2C1 (centres unmarked) [M1]
Major metabolites relative abundance (% of total UV peak areas of drug and its metabolites) [3]: 10.7%

c1ccc2c(c1)Cc1cccnc1N1CCNCC21 (centres unmarked) [M2]
Major metabolites relative abundance (% of total UV peak areas of drug and its metabolites) [3]: 8.1%

OCc1ncc2n1-c1ccc(Cl)cc1C(c1ccccc1F)=NC2 [MM2]
Major metabolites relative abundance (% of total UV peak areas of drug and its metabolites) ([1]; midazolam 3 μM, 2 min, HLM): Mono-oxidation: MM2 (29.0%)

Cc1ncc2n1-c1ccc(Cl)cc1C(c1ccccc1F)=NC2 [Midazolam, midazolam]
Disappearance of the parent ([1]; midazolam 3 μM, 2 min, HLM): 31%

CNCCCC(C#N)(c1ccc(OC)c(OC)c1)C(C)C (centres unmarked) [V1]
Major metabolites relative abundance (% of total UV peak areas of drug and its metabolites) ([2]; verapamil 5 μM): 6.1%

COc1ccc(CCNCCCC(C#N)(c2ccc(OC)c(OC)c2)C(C)C)cc1OC (centres unmarked) [V5]
Major metabolites relative abundance (% of total UV peak areas of drug and its metabolites) ([2]; verapamil 5 μM): 14.7%

CNCCCC(C#N)(c1ccc(OC)c(OC)c1)C(C)C (centres unmarked) [VM2]
Major metabolites relative abundance (% of total UV peak areas of drug and its metabolites) ([1]; human, 4 min, 3 µM, pH 7.4): 8.9%

COc1ccc(CCNCCCC(C#N)(c2ccc(OC)c(OC)c2)C(C)C)cc1OC (centres unmarked) [VM8]
Major metabolites relative abundance (% of total UV peak areas of drug and its metabolites) ([1]; human, 4 min, 3 µM, pH 7.4): 19.0%

CN(C)CCC1(c2ccccc2)CCc2ccccc2C1=O (centres unmarked) [nafenodone]
Disappearance of the parent ([6]; estimated): over 80% | Number of oxidative metabolites formed [6]: 26
